Experimental findings from patent publication US20250084097A1, “MACROCYCLIC AMIDE COMPOUNDS AND APPLICATION THEREOF” (Medshine Discovery Inc., priority 2021, published 2025) are described below.

Where two headings read alike, the source gives them in different places.

Test [1] addresses Ba/F3-FL-EGFR (L858R/T790M/C797S) (Homo sapiens, UniProt P00533, T790M/C797S/L858R, cells depend on it). The test is described as follows: Cell proliferation inhibition, CellTiter-Glo. The class given is cell-based. As for the experimental part:
AdenosineTri-Phosphate (ATP) is an energy carrier shared by various life activities in nature, and is the smallest unit of energy storage and transfer. The CellTiter-Glo™ living cell assay kit uses luciferase as a detector, and luciferase requires the participation of ATP in the process of luminescence. CellTiter-Glo™ reagent is added to a cell culture medium, and the luminescence value is measured. The light signal is directly proportional to the amount of ATP in the system, and ATP is positively correlated with the number of living cells. Therefore, cell proliferation can be detected by detecting ATP content with the CellTiter-Glo kit. In this assay, the cell lines were Ba/F3-FL-EGFR (L858R/T790M/C797S), Ba/F3-FL-EGFR (WT), Ba/F3-FL-EGFR (L858R), Ba/F3-FL-EGFR (del19-S752-I759), Ba/F3-FL-EGFR (del19-E746-A750/T790M/C797S), Ba/F3-FL-EGFR (L858R/T790M), Ba/F3-FL-EGFR (del19-E746-A750/T790M), Ba/F3-TEL-EGFR (L858R/C797S), Ba/F3-FL-EGFR (del19-E746-A750/C797S) stably transfected cell lines.
The cell lines were cultured in an incubator at 37° C. and 5% CO2. The cells were periodically passaged, and cells in logarithmic growth phase were taken for plating.
a) DMSO was used to prepare a 10 mM solution of the compound to be tested, and then the compound to be tested was diluted to 0.3 or 1 mM with DMSO.
b) Preparation of 1000× compound storage plate (tube): DMSO was used to dilute by 3-fold gradient from the highest concentration to the lowest concentration, with a total of 9 concentrations.
c) Preparation of 20× compound working solution: 49 μL of cell culture medium was added to a flat-bottomed 96-well transparent drug plate, and 1 μL of compound was pipetted from the 1000× compound storage plate to the cell culture medium of the 96-well transparent drug plate. 1 μL of DMSO was added to the vehicle control. After adding compound or DMSO, the well content was mixed to uniform by aspiration and expelling with pipette.
a) Cells were stained with trypan blue and viable cells were counted. The cell viability rate was required to be above 90%.
b) 95 μL of cell suspension (2000 cells/well) was added to each well of the compound detection cell plate, and culture medium without cells (containing 0.1% DMSO) was added to the Min control well.
c) Dosing in the compound detection cell plate: 5 μL of 20× compound working solution was added to the cell culture plate. 5 μL of DMSO-cell culture mixture was added to the Max control. The final concentration of DMSO was 0.1%.
d) The culture plate was incubated in an incubator at 37° C., 5% CO2 for 72 hours.
Cell proliferation inhibition rate (Inhibition Rate) data were processed using the following formula:
Inhibition Rate (Inh %)=100−(RLUDrug−RLUMin)/(RLUMax−RLUMin)*100%.
The inhibition rates corresponding to different concentrations of compounds were calculated, and then GraphPad Prism software was used to draw the inhibition rate curve and the IC50 value was calculated.

The subject of test [2] is Ba/F3-FL-EGFR (del19-T790M-C797S) cells. Nature of the test: In vivo efficacy, Ba/F3-FL-EGFR-Del19-T790M-C797S cell homograft tumor model. Further details: species or system mouse. The conditions noted are these: for Relative tumor proliferation rate T/C / Tumor growth inhibition rate TGI: Day 10. As for the experimental part:
Ba/F3-FL-EGFR (del19-T790M-C797S) cell line was cultured in RPMI1640 medium (Viva Cell)+10% fetal bovine serum (Viva Cell)+1% double-antibody (Penicillin Streptomycin solution, Gibco, USA) at 37° C., 5% CO2, and passaged 2-3 times a week. When the cell saturation was 80%-90%, cells were collected, counted and inoculated. When the cells in the logarithmic growth phase reached the required number for the assay, the cells were collected, and centrifuged at 1000 rpm for 5 min to remove the supernatant. The cells were resuspended with medium, and counted using a cell counter. According to the counting results, the original solution was diluted into a cell suspension with a concentration of 1*10^7 viable cells/mL, and the cell viability was 98.77%, P17 generation. The diluted cell suspension and matrix gel were diluted in a 1:1 ratio. After mixing well and placing on ice, the suspension was aspirated with a 1 mL sterile insulin syringe, and each mouse was subcutaneously inoculated with 0.2 mL of cell suspension in the right axilla. That is, each mouse was inoculated with 1*10^6 Ba/F3-FL-EGFR (del19-T790M-C797S) cells.
After the inoculation was completed, the tumor growth status was observed daily. When the average tumor volume reached approximately 100˜150 mm^3, the mice were randomly divided into groups according to tumor volume.
Dosage according to mouse body weight: 10 μL/g. If the body weight decreases by more than 20%, the dosing regimen was adjusted accordingly.
The formulation and any modifications of this assay protocol were evaluated and approved by the Laboratory Animal Welfare Ethics Committee of the testing institution. The health status and death of animals were checked every day. Routine inspections included tumor growth, activity, diet, body weight, eyes, hair and other abnormal behaviors of animals. Tumor volume and body weight were measured three times a week (Monday, Wednesday and Friday). The tumor volume was measured with a vernier caliper, and the formula was TV=0.5 a×b^2, where a is the long diameter of a tumor and b is the short diameter of a tumor.
Statistical analysis included the mean (Mean) and standard error (SEM) of tumor volume at each time point for each group. Statistical analysis was performed to evaluate differences between groups based on the data on the 10th day after administration. One way ANOVA post hoc test and Tamhane test were used to compare whether there was a significant difference in tumor volume between the treatment group and the control group. p<0.05 meaned a significant difference. Drug efficacy evaluation indicators included tumor volume and tumor weight to examine whether tumor growth was delayed, inhibited or cured. The anti-tumor efficacy of compounds was evaluated using the relative tumor proliferation rate T/C (%) or the tumor growth inhibition rate TGI (%). […] In principle, the evaluation criteria were: T/C (%) >40% or TGI (%) <40% represents ineffective; T/C (%)≤40% and p<0.05, or TGI (%)≥40% and p<0.05 represents effective.

Setting [3] is: 72 hours, read-out: Cell half-maximal inhibition concentration IC50 Ba/F3-FL-EGFR (L858R/T790M/C797S).
[4] abbreviates: 10 mg/kg/bid, day 0 after administration.
Setting [5] is: 10 mg/kg/bid, day 3 after administration.
The mark [6] stands for this setting: 10 mg/kg/bid, day 5 after administration.
Where [7] appears, read: 10 mg/kg/bid, day 7 after administration.
[8] abbreviates: 10 mg/kg/bid, day 10 after administration.
[9] abbreviates: 25 mg/kg/bid, day 0 after administration.
[10] abbreviates: 25 mg/kg/bid, day 3 after administration.
Setting [11] is: 25 mg/kg/bid, day 5 after administration.
[12] abbreviates: 25 mg/kg/bid, day 7 after administration.
Where [13] appears, read: 25 mg/kg/bid, day 10 after administration.

Sequence of Ba/F3-FL-EGFR (L858R/T790M/C797S) (P00533 whole entry T790M/C797S/L858R): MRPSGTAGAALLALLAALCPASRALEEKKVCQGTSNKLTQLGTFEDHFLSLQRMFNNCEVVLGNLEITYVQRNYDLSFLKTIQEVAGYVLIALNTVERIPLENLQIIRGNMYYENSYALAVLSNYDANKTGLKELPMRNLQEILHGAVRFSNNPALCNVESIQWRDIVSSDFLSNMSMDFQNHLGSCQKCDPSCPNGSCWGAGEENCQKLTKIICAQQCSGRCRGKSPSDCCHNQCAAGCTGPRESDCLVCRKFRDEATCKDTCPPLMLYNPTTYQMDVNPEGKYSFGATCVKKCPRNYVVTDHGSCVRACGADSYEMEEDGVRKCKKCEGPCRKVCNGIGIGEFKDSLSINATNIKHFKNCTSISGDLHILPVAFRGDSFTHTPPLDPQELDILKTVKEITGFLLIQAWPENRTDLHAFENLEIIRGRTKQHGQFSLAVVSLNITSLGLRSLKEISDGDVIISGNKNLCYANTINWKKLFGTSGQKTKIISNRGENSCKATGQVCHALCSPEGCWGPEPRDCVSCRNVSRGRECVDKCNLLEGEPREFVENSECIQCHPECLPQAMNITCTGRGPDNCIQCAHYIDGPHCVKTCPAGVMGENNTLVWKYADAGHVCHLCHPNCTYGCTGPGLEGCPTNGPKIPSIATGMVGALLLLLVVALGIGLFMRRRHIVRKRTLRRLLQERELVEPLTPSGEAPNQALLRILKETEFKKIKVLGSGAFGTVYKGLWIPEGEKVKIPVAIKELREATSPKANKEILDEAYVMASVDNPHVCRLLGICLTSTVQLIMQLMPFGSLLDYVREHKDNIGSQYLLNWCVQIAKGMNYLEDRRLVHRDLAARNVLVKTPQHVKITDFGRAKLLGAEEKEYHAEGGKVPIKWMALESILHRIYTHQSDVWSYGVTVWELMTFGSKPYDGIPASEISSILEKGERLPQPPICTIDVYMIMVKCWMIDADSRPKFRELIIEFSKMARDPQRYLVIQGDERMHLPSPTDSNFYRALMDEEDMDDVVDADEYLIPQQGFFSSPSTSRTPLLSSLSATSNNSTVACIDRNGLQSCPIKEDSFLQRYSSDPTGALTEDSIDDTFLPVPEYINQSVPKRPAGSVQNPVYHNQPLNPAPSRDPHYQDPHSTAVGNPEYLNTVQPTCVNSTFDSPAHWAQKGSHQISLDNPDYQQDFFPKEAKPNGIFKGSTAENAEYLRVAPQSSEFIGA

As to `Cc1cc2cc(n1)-c1cnn(C)c1OCCC[C@@H](C)CN1/C(=N/C2=O)Nc2ccc(N=S3(=O)CCOCC3)cc21` [WX-013], the GI50 in test [1] (read-out: Cell half-maximal inhibition concentration IC50 Ba/F3-FL-EGFR (L858R/T790M/C797S), 72 hours) was determined as 4.3 nM.
For the compound `Cc1cc2cc(n1)-c1cnn(C)c1OC[C@H]1CC[C@H](C1)CN1/C(=N/C2=O)Nc2ccc(N=S(C)(C)=O)cc21` (single isomer, unassigned) [WX-027A], the GI50 in test [1] (setting [3]) was determined as 8.6 nM. Moreover, the “Relative tumor proliferation rate T/C” value in test [2] (10 mg/kg/bid) stood at 14%; in test [2] (25 mg/kg/bid), 7%. In addition, the figures for the “Tumor growth inhibition rate TGI” value in test [2] (10 mg/kg/bid) and in test [2] (25 mg/kg/bid) were 94% and 102%, respectively. Moreover, the Average tumor volume in test [2] (setting [4]) stood at 113 mm^3; in test [2] (setting [5]) it was 123 mm^3; in test [2] (setting [6]), 111 mm^3; in test [2] (setting [7]), 183 mm^3; in test [2] (setting [8]) it was 179 mm^3; in test [2] (setting [9]), 112 mm^3. Further, the Average tumor volume in test [2] (setting [10]) came to 105 mm^3; in test [2] (setting [11]) it was 96 mm^3; in test [2] (setting [12]), 108 mm^3; in test [2] (setting [13]), 86 mm^3.
With `Cc1cc2cc(n1)-c1cnn(C)c1OCCC[C@@H](C)CN1/C(=N/C2=O)Nc2ccc(N=S(C)(C)=O)c(Cl)c21` [WX-019], in test [1] (setting [3]), the GI50 was determined as 5.7 nM. The “Relative tumor proliferation rate T/C” value was found to be 8% in test [2] (10 mg/kg/bid) and 7% in test [2] (25 mg/kg/bid). Further, the results for the “Tumor growth inhibition rate TGI” value in test [2] (10 mg/kg/bid) and in test [2] (25 mg/kg/bid) were 101% and 103%, respectively. Besides, the Average tumor volume in test [2] (setting [4]) came out at 113 mm^3; in test [2] (setting [5]), 133 mm^3; in test [2] (setting [6]), 140 mm^3; in test [2] (setting [7]) it was 148 mm^3; in test [2] (setting [8]), 106 mm^3; in test [2] (setting [9]), 113 mm^3. Also, the Average tumor volume was 120 mm^3 in test [2] (setting [10]), 94 mm^3 in test [2] (setting [11]), 130 mm^3 in test [2] (setting [12]) and 82 mm^3 in test [2] (setting [13]).
Turning to `Cc1cc2cc(n1)-c1cnn(C)c1OCCC[C@@H](C)CN1/C(=N/C2=O)Nc2ccc(N=S3(=O)CCCC3)cc21` [WX-010 (trifluoroacetate)], the GI50 in test [1] (setting [3]) was found to be 2.8 nM.
